Results taken from patent US20220168271A1, “COMPOSITIONS AND METHODS FOR INCREASING T CELL FUNCTION” (SOCIETE DES PRODUITS NESTLE S.A., priority 2019, published 2022).

Columns and labels:
OTI-1 CD8+ T-cells [1] = experiment: Seahorse mitochondrial stress analysis, spare respiratory capacity (metabolic potential); assay type: cell-based, mouse; settings: day 7, negative control = effector T cells expanded with IL-2/7, concentrations as in the 1st table/the 2nd table
Protocol: (§1) Unless specified otherwise, cell media were supplemented with agents or combinations of agents at the following concentrations:
(§2) 750 μL of agent/agent combination supplementation solutions (described above) were added to corresponding wells of a flat bottom 24-well plate.
(§3) The total splenic cells were then resuspended in RPMI completed media (+10% FBS, Sodium Pyruvate), including IL-2 (final concentration 100 U/mL) and SIINFEKL peptide (final concentration 250 nM) at 1.6×10^6 cells/mL.
(§4) The cells from each condition (after day 3) were counted and resuspended in RPMI completed media (+10% FBS, Sodium Pyruvate) at 1.2×10^6 cells/mL.
(§5) The cells were then distributed in 96-well or 12-well plates at 5×10^4 cells/well (96-well plate) and 6×10^6 cells/well (12-well plate).
(§6) Agent/agent combination supplementation solutions (described above) or complete media were added to corresponding wells in addition to either: (a) IL-2 (at a final concentration of 100 U/mL) and IL-7 (at a final concentration of 10 U/mL) (to keep the effector phenotype); or (b) IL-15 (at a final concentration of 10 U/mL) (to induce differentiation into memory precursor effector cells (MPECs) as a positive control.
(§7) The cells were then incubated at 37° C. for 4 days before proceeding with FACS staining or Seahorse analysis.
Cells were harvested from 12-well or 6-well plates.
A probe plate containing cartridge pores (Seahorse XFe96 FluxPak) was prepared by adding 200 μL of Seahorse XF Calibrant solution (Agilent) to each well and incubating overnight at 37° C. (no CO2).
Residues were removed by transferring the cells to a 15 mL tube and a Pasteur pipette was added. 2 mL of Lympholyte M was slowly added to the Pasteur pipette, and the Ficoll was allowed to slowly release below the cells before the pipette was removed from the tube. The tube was the centrifuged at 1500 rpm, 10 min at room temperature without braking.
5 mL of fresh uncompleted RPMI was added to the cells, and the mixture was centrifuged at 1500 rpm, 5 min at room temperature. The cells were then resuspended in 1 mL of RPMI completed media (+10% FBS, Sodium Pyruvate).
Subsequently, the cells were counted before being resuspended at 5×10^6 cells/mL in completed XF Medium (non-buffered RPMI, with glucose (25 mM), L-glutamine (2 mM) and sodium pyruvate (1 mM), pH 7.3).
40 μL of cells were then distributed in corresponding pre-determined Poly-D-Lysine coated wells of a cell culture plate (V3-PS TC-Treated) and the plate was centrifuged at 400 g, 5 min.
140 μL of XF Medium was carefully added to each well, and the plate was incubated at 37° C., 30-60 min (no CO2). During this time modulator solutions (Oligomycin 10 μM; FCCP 15 μM; Rotenone/Antimycin A 1 μM/1 μg/mL) were loaded into the previously prepared cartridge pores: 20 μL of Oligomycin in pore A; 22 μL of FCCP in pore B; and 24 μL of Rotenone/Antimycin A in pore C) and the cartridge was incubated at 37° C. (no CO2).
Mitochondrial stress analysis was then carried out using the Wave software following the manufacturer instructions.
After data acquisition, oxygen consumption rates were extracted and spare respiratory capacity calculated following the manufacturer's instructions.
(§8) To study the enhancement of T cell immune fitness the in vitro studies focused on the development of T cells with long term and resting phenotypes, which could be equated to the development of memory cell characteristics. The metabolic intervention outcomes were evaluated using: • Cell phenotype: assessment by FACS of the cell surface expression of the specific marker CD62L, which is higher on resting T-cells. • Cell function: assessment using metabolic potential measurement (as per the Spare Respiratory Capacity) by means of an assay assessing cell respiration upon mitochondrial stress (Seahorse technology), which is higher in memory, quiescent cells.

OTI-1 CD8+ T-cells [2] = experiment: CD62L surface expression by FACS on in vitro stimulated CD8+ T cells; assay type: cell-based, mouse; settings: FACS median fluorescence, day 7; negative control = effector T cells expanded with IL-2/7; concentrations as in the 1st table/the 2nd table
Protocol: as §1
An OTI-1 mouse was sacrifice and dissected to extract the spleen. Under sterile conditions, the spleen was disrupted over a […] filter. PBS was then added to the disrupted spleen to a volume of 30 mL, and the mixture was centrifuged (1500 rpm, 5 min at room temperature).
The PBS supernatant was discarded and the cells resuspended in 2 mL of 1× red blood cell lysis buffer for 3 min. 15 mL of PBS was then added to wash the cells, and the mixture was centrifuged (1500 rpm, 5 min at room temperature).
The PBS supernatant was discarded and the cells resuspended in fresh RPMI completed media (+10% FBS, Sodium Pyruvate) before counting.
as §2, §3
750 μL of cell solution (2×) were added to each well. Thus, the cell count was 1200000 cells per well at 0.8×10^6 cells/mL.
The cells were then incubated at 37° C. for 3 days.
The specific activation of OTI-1 T-cells is due to the SIINFEKL peptide. Therefore after 3 days, mostly (if not only) CD8 T-cells will have proliferated and show an activation profile.
as §4, §5, §6
Extra media was added at day 5 to the wells with fresh agents and cytokines.
as §7
Cells were harvest from the 96-well plates and centrifuged (2000 rpm, 2 min at 4° C.) before washing with 150 μL of PBS.
(§9) The cells were then resuspended in 60 μL of LiveDead dye solution (1:500 dilution in PBS) and incubated for 15 min on ice. Cells were then centrifuged (2000 rpm, 2 min at 4° C.) before washing with 150 μL of PBS and then 200 μL of FACS buffer (PBS+2% FBS).
Subsequently, the cells were resuspended in 60 μL of stain solution (FACS buffer+antibodies specific for CD45.1, CD62L and CD8), and incubated for 15 min on ice.
(§10) Cells were then centrifuged (2000 rpm, 2 min at 4° C.) before washing with 150 μL of FACS buffer, and then resuspended in 150 μL of FACS buffer before analysis by FACS (BD™ LSR II).
After acquisition, FACS data were analysed using the FlowJo treestar software and median fluorescence for CD62L was extracted.
as §8

OTI-1 T cells = experiment: Adoptive transfer of pre-treated OTI-1 T cells into Listeria monocytogenes (Lm-OVA) infected mice, FACS of blood and spleen after 35 days; assay type: in vivo, C57BL/6 mice; settings: for cell frequency: percentage of transferred cells (CD45.1) from total CD8 positive T cells, compared with control / percentage of memory cells (CD27 and CD43 positive) from CD8 positive transferred cells / percentage of MPECs (CD127 positive, KLRG1 negative) from CD8 positive transferred cells: 35 days of infection; for frequency levels of transferred cells compared with positive control (Phenformin treatment): Phenformin 100 μM pre-treatment
Protocol: The metabolic intervention consisted of cell medium supplementation as described above for the in vitro procedure) using the following agent concentrations, before adoptive transfer of the cells into infected mice.
For the in vivo assessment, the positive control was obtained by pre-treating the OTI-1 CD8 T-cells in vitro with Phenformin (100 μM) following the same procedure as for the other agents). Phenformin is known to induce a metabolic switch in cells essential for the development of long-term T-cells.
C57BL/6 mice were injected intravenously with 2000 CFU of Listeria monocytogenes bacteria expressing OVA at a concentration of 1×10^4 CFU/mL (Lm-OVA; harvested in Brain Heart Infusion media without antibiotics until OD reached 0.3) in 200 μL of PBS to induce a Listeria monocytogenes infection.
Treated OTI-1 T-cells (specific for OVA recognition) were provided from day 7 of the procedure described above in Example 1 at a concentration of 1×10^5 cells/mL in PBS. Residues were cleaned from the T cells using Lympholyte M as described above.
Adoptive transfer of OTI-1 T cells was carried out by intravenously injecting each mouse with 1×10^4 cells in 200 μL of PBS.
After 35 days, the mice were sacrificed to collect blood and spleens for further surface and intracellular FACs analysis.
Harvested blood or total spleen cells were subjected to red blood cell lysis in a 96-well plate and then centrifuged (2000 rpm, 2 min at 4° C.) before washing with 150 μL of PBS.
as §9
Subsequently, the cells were resuspended in 60 μL of stain solution (FACS buffer+antibodies specific for CD45.1, CD62L, CD8, CD127, KLRG1, CD27, CD43 and CXCR3), and incubated for 15 min on ice.
as §10
After acquisition, FACS data were analysed using the FlowJo treestar software and percentages of gated cells for targeted markers were extracted. […]
The cells were the centrifuged (2000 rpm, 2 min at 4° C.) and washed with 150 μL of 1× Permeabilization buffer (Intracellular staining kit (BD™)), and then centrifuged (2000 rpm, 2 min at 4° C.) and washed with 200 μL of FACS buffer. 200 μL of FACS buffer was then added and the mixture stored at 4° C. till analysis by FACS (BD™ LSR II) either the same or following day.
After acquisition, data were analysed using the FlowJo treestar software and percentages of gated cells for the targeted markers were extracted.
To study the enhancement of T cell immune fitness the in vivo studies focused on the development of T cells with long term and resting phenotypes after treatment and adoptive transfer into mice simultaneously infected with Listeria monocytogenes. The metabolic intervention outcomes were evaluated after 35 days of infection using: • Cell frequency: assessment by FACS of the percentage of transferred cells (CD45.1) from total CD8 positive T cells in the mice blood and spleen. • Cell phenotype: assessment by FACS of the percentage of cells from the blood and spleen that developed memory patterns from total CD8 positive transferred cells (CD45.1): either memory precursor effector cells (MPECs; both positive for CD127 and negative for KLRG1 markers) or full memory cells (positive for both CD27 and CD43 markers). • Cell function: assessment by FACS of the percentage of transferred cells (CD45.1) from total CD8 positive T cells in the mice spleen expressing the functional surface marker CXCR3 and able to produce both IFNγ and TNFα cytokines by intracellular staining.

Compound | metabolic potential (spare respiratory capacity) compared with negative control (OTI-1 CD8+ T-cells [1]) | CD62L surface expression level compared with negative control (OTI-1 CD8+ T-cells [2]) | cell frequency: percentage of transferred cells (CD45.1) from total CD8 positive T cells, compared with control (OTI-1 T cells; blood) | cell frequency: percentage of transferred cells (CD45.1) from total CD8 positive T cells, compared with control (OTI-1 T cells; spleen) | percentage of memory cells (CD27 and CD43 positive) from CD8 positive transferred cells (OTI-1 T cells; spleen) | percentage of MPECs (CD127 positive, KLRG1 negative) from CD8 positive transferred cells (OTI-1 T cells; blood) | percentage of memory cells (CD27 and CD43 positive) from CD8 positive transferred cells (OTI-1 T cells; blood) | frequency levels of transferred cells compared with positive control (Phenformin treatment) (OTI-1 T cells; blood) | percentage of MPECs (CD127 positive, KLRG1 negative) from CD8 positive transferred cells (OTI-1 T cells; spleen) | frequency levels of transferred cells compared with positive control (Phenformin treatment) (OTI-1 T cells; spleen)
N=C(N)NCCC[C@H](N)C(=O)O [Arg, Arginine] | higher | higher | higher | higher | higher | – | – | – | – | –
NC(=O)C[C@H](N)C(=O)O [Asn, Asparagine] | higher | higher | – | – | – | – | – | – | – | –
NCC(=O)O [Gly, Glycine] | higher | higher | – | – | – | – | – | – | – | –
[Cl][Mn][Cl] [Mn, MnCl2] | higher | higher | – | – | – | – | – | – | – | –
NC(=O)c1ccc[n+]([C@@H]2O[C@H](CO)[C@@H](O)[C@H]2O)c1 [NR, Nicotinamide riboside] | higher | higher | higher | higher | higher | higher | higher | higher | higher | similar
N[C@@H](CO)C(=O)O [Ser, Serine] | higher | higher | – | – | – | – | – | – | – | –
O=c1oc2cc(O)ccc2c2ccc(O)cc12 [UroA, urolithin A (3,8-dihydroxyurolithin)] | higher | higher | – | – | – | – | – | – | – | –
Vitamin B12 | higher | higher | higher | higher | higher | – | higher | higher | higher | higher
